Legend:
[1] = circulating in blood, metabolized by the liver; cited from earlier work
alpha-1 = experiment: potency of alpha-1-agonist relative to noradrenaline
From the text: For example, phenylephrine is an alpha-1-agonist and may replace noradrenaline.

SMILES | half-life [1] | times less potent than noradrenaline (alpha-1)
CNCC(O)c1ccc(O)c(O)c1 (stereo not drawn) [adrenaline] | approximately a few minutes | –
NC[C@H](O)c1ccc(O)c(O)c1 [noradrenaline] | approximately a few minutes | –
CNC[C@H](O)c1cccc(O)c1 [phenylephrine] | – | about 5 times
